# PMC6783499, “Heteroglycoclusters With Dual Nanomolar Affinities for the Lectins LecA and LecB From Pseudomonas aeruginosa” (Frontiers in Chemistry, 2019)
# Target: T1, LecB (Pseudomonas aeruginosa, UniProt Q9HYN5)
# T1 construct: made in house; host or cells: Escherichia coli BL21(DE3)
# Test: biochemical
# Type: binding
# Settings: for n (stoichiometry, glycocluster molecules per lectin monomer): pH 7.5; for –ΔG / –ΔH / −TΔS: per mole of glycocluster; for α (relative potency compared to the monovalent compound) / β (relative potency per sugar unit): relative to αFuc-OMe
# Method: The resulting hGCs were tested in solution with lectins by Isothermal Titration Calorimetry (Table 1) and their binding properties were compared with homoclusters 15–20 (Berthet et al., [2013]; Thomas et al., [2015b]) displaying either 4 and 16 βGal or αFuc units attached with an oxime or a triazole linker (Figure 3). […] Experiments were performed in direct injection mode (i.e., ligand in syringe and protein in cell) to minimize aggregation problems.
# All chemical reagents were purchased from Aldrich (Saint Quentin Fallavier, France) or Acros (Noisy-Le-Grand, France). All protected amino acids and Fmoc-Gly-Sasrin® resin was obtained from Advanced ChemTech Europe (Brussels, Belgium). For peptides and glycopeptides, analytical RP-HPLC was performed on Waters system equipped with a Waters 2695 separations module and a Waters 2487 Dual Absorbance UV/Visible Detector. Analysis was carried out at 1.0 mL/min (EC 125/3 nucleosil 300-5 C18) with UV monitoring at 214 nm and 250 nm using a linear A–B gradient (buffer A: 0.09% CF3CO2H in water; buffer B: 0.09% CF3CO2H in 90% acetonitrile). Purifications were carried out at 22.0 mL/min (VP 250/21 nucleosil 100-7 C18) with UV monitoring at 214 nm and 250 nm using a linear A–B gradient. HRMS and ESI-MS and HRMS spectra of peptides and glycopeptides were measured on an Esquire 3000 spectrometer from Bruker. Lectins LecA and LecB were produced in recombinant form in Escherichia coli BL21(DE3) as described previously (Mitchell et al., [2005]; Blanchard et al., [2008]).
# Other compounds were assayed with a VP-ITC isothermal titration calorimeter (Microcal). The experiments were carried out at 25°C. All glycocompounds and lectins LecB and LecA were dissolved in the same buffer composed of 20 mM Tris with 100 mM NaCl and 0.1 mM CaCl2 at pH 7.5. For PEAQ-ITC, the lectins were placed in the microcalorimeter cell (200 μL) at concentrations varying from 35 to 70 μM. […] For VP-ITC, the microcalorimeter cell (1.447 mL) contained the lectins with concentrations between 30 and 100 μM. A total of 30 injections of 10 μL were performed intervals of 5 min while stirring at 310 rpm with glycoclusters concentrations varying from […]. The experimental data were fitted to a theoretical titration curve using the Microcal PEAQ-ITC analysis software, with ΔH (enthalpy change), Ka (association constant), and N (number of binding sites per monomer) as adjustable parameters. Dissociation constant (Kd), free energy change (ΔG), and entropy contributions (TΔS) were derived from the previous ones. Two or three independent titrations were performed for each ligand tested.
# [1] = ITC, 25°C, 20 mM Tris, 100 mM NaCl, 0.1 mM CaCl2, pH 7.5, ligand in syringe
# T1 sequence (Q9HYN5 entry or part of it): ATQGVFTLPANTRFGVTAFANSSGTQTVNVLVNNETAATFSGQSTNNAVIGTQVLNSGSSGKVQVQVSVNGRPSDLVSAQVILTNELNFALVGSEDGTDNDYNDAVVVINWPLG
Compound,–ΔH (binding enthalpy) (ITC) [kcal/mol],"n (stoichiometry, glycocluster molecules per lectin monomer) (ITC, 25°C)","–ΔG (ITC, 25°C) [kcal/mol]","–ΔH (ITC, 25°C) [kcal/mol]","−TΔS (ITC, 25°C) [kcal/mol]",Kd [1] [nM],α (relative potency compared to the monovalent compound),"Kd (ITC, rounded value) [nM]",β (relative potency per sugar unit),binding improvement on multimerisation of tetravalent to hexadecavalent dendrimer (19 versus tetravalent 15) [fold],binding to LecB in words (abstract)
C[C@@H]1NC(=O)[C@H](CCCCNC(=O)/C=N/O[C@@H]2O[C@@H](C)[C@@H](O)[C@@H](O)[C@@H]2O)NC(=O)CNC(=O)[C@@H]2CCCN2C(=O)[C@H](CCCCNC(=O)/C=N/O[C@@H]2O[C@@H](C)[C@@H](O)[C@@H](O)[C@@H]2O)NC(=O)[C@H](CCCCNC(=O)CO/N=C/C(=O)NCCCC[C@@H]2NC(=O)CNC(=O)[C@@H]3CCCN3C(=O)[C@H](CCCCNC(=O)/C=N/OCC(=O)NCCCC[C@@H]3NC(=O)[C@H](CCCCNC(=O)/C=N/O[C@@H]4O[C@@H](C)[C@@H](O)[C@@H](O)[C@@H]4O)NC(=O)CNC(=O)[C@@H]4CCCN4C(=O)[C@H](CCCCNC(=O)/C=N/O[C@@H]4O[C@@H](C)[C@@H](O)[C@@H](O)[C@@H]4O)NC(=O)[C@H](C)NC(=O)[C@H](CCCCNC(=O)/C=N/O[C@@H]4O[C@@H](C)[C@@H](O)[C@@H](O)[C@@H]4O)NC(=O)CNC(=O)[C@@H]4CCCN4C(=O)[C@H](CCCCNC(=O)/C=N/O[C@@H]4O[C@@H](C)[C@@H](O)[C@@H](O)[C@@H]4O)NC3=O)NC(=O)[C@H](CCCCN)NC(=O)[C@H](CCCCNC(=O)CO/N=C/C(=O)NCCCC[C@@H]3NC(=O)[C@H](CCCCn4cc(CO[C@H]5O[C@H](CO)[C@@H](O)[C@H](O)[C@@H]5O)nn4)NC(=O)CNC(=O)[C@@H]4CCCN4C(=O)[C@H](CCCCn4cc(CO[C@H]5O[C@H](CO)[C@@H](O)[C@H](O)[C@@H]5O)nn4)NC(=O)[C@H](C)NC(=O)[C@H](CCCCn4cc(CO[C@H]5O[C@H](CO)[C@@H](O)[C@H](O)[C@@H]5O)nn4)NC(=O)CNC(=O)[C@@H]4CCCN4C(=O)[C@H](CCCCn4cc(CO[C@H]5O[C@H](CO)[C@@H](O)[C@H](O)[C@@H]5O)nn4)NC3=O)NC(=O)CNC(=O)[C@@H]3CCCN3C(=O)[C@H](CCCCNC(=O)CO/N=C/C(=O)NCCCC[C@@H]3NC(=O)[C@H](CCCCn4cc(CO[C@H]5O[C@H](CO)[C@@H](O)[C@H](O)[C@@H]5O)nn4)NC(=O)CNC(=O)[C@@H]4CCCN4C(=O)[C@H](CCCCn4cc(CO[C@H]5O[C@H](CO)[C@@H](O)[C@H](O)[C@@H]5O)nn4)NC(=O)[C@H](C)NC(=O)[C@H](CCCCn4cc(CO[C@H]5O[C@H](CO)[C@@H](O)[C@H](O)[C@@H]5O)nn4)NC(=O)CNC(=O)[C@@H]4CCCN4C(=O)[C@H](CCCCn4cc(CO[C@H]5O[C@H](CO)[C@@H](O)[C@H](O)[C@@H]5O)nn4)NC3=O)NC(=O)[C@H](C)NC2=O)NC(=O)[C@H](CCCCNC(=O)/C=N/O[C@@H]2O[C@@H](C)[C@@H](O)[C@@H](O)[C@@H]2O)NC(=O)CNC(=O)[C@@H]2CCCN2C(=O)[C@H](CCCCNC(=O)/C=N/O[C@@H]2O[C@@H](C)[C@@H](O)[C@@H](O)[C@@H]2O)NC1=O [Compound 12],50.7,0.08,9.66,50.43 ± 0.72,40.77,85 ± 16,5.1,,,,
C[C@@H]1NC(=O)[C@H](CCCCn2cc(CO[C@@H]3O[C@@H](C)[C@@H](O)[C@@H](O)[C@@H]3O)nn2)NC(=O)CNC(=O)[C@@H]2CCCN2C(=O)[C@H](CCCCn2cc(CO[C@@H]3O[C@@H](C)[C@@H](O)[C@@H](O)[C@@H]3O)nn2)NC(=O)[C@H](CCCCN)NC(=O)[C@H](CCCCn2cc(CO[C@@H]3O[C@@H](C)[C@@H](O)[C@@H](O)[C@@H]3O)nn2)NC(=O)CNC(=O)[C@@H]2CCCN2C(=O)[C@H](CCCCn2cc(CO[C@@H]3O[C@@H](C)[C@@H](O)[C@@H](O)[C@@H]3O)nn2)NC1=O [Compound 16],,0.19,8.8,28.56 ± 0.24,19.8,367 ± 26,1.2,300,0.3,,
C[C@@H]1NC(=O)[C@H](CCCCNC(=O)/C=N/OCC(=O)NCCCC[C@@H]2NC(=O)[C@H](CCCCNC(=O)/C=N/O[C@@H]3O[C@@H](C)[C@@H](O)[C@@H](O)[C@@H]3O)NC(=O)CNC(=O)[C@@H]3CCCN3C(=O)[C@H](CCCCNC(=O)/C=N/O[C@@H]3O[C@@H](C)[C@@H](O)[C@@H](O)[C@@H]3O)NC(=O)[C@H](C)NC(=O)[C@H](CCCCNC(=O)/C=N/O[C@@H]3O[C@@H](C)[C@@H](O)[C@@H](O)[C@@H]3O)NC(=O)CNC(=O)[C@@H]3CCCN3C(=O)[C@H](CCCCNC(=O)/C=N/O[C@@H]3O[C@@H](C)[C@@H](O)[C@@H](O)[C@@H]3O)NC2=O)NC(=O)CNC(=O)[C@@H]2CCCN2C(=O)[C@H](CCCCNC(=O)/C=N/OCC(=O)NCCCC[C@@H]2NC(=O)[C@H](CCCCNC(=O)/C=N/O[C@@H]3O[C@@H](C)[C@@H](O)[C@@H](O)[C@@H]3O)NC(=O)CNC(=O)[C@@H]3CCCN3C(=O)[C@H](CCCCNC(=O)/C=N/O[C@@H]3O[C@@H](C)[C@@H](O)[C@@H](O)[C@@H]3O)NC(=O)[C@H](C)NC(=O)[C@H](CCCCNC(=O)/C=N/O[C@@H]3O[C@@H](C)[C@@H](O)[C@@H](O)[C@@H]3O)NC(=O)CNC(=O)[C@@H]3CCCN3C(=O)[C@H](CCCCNC(=O)/C=N/O[C@@H]3O[C@@H](C)[C@@H](O)[C@@H](O)[C@@H]3O)NC2=O)NC(=O)[C@H](CCCCN)NC(=O)[C@H](CCCCNC(=O)/C=N/OCC(=O)NCCCC[C@@H]2NC(=O)[C@H](CCCCNC(=O)/C=N/O[C@@H]3O[C@@H](C)[C@@H](O)[C@@H](O)[C@@H]3O)NC(=O)CNC(=O)[C@@H]3CCCN3C(=O)[C@H](CCCCNC(=O)/C=N/O[C@@H]3O[C@@H](C)[C@@H](O)[C@@H](O)[C@@H]3O)NC(=O)[C@H](C)NC(=O)[C@H](CCCCNC(=O)/C=N/O[C@@H]3O[C@@H](C)[C@@H](O)[C@@H](O)[C@@H]3O)NC(=O)CNC(=O)[C@@H]3CCCN3C(=O)[C@H](CCCCNC(=O)/C=N/O[C@@H]3O[C@@H](C)[C@@H](O)[C@@H](O)[C@@H]3O)NC2=O)NC(=O)CNC(=O)[C@@H]2CCCN2C(=O)[C@H](CCCCNC(=O)/C=N/OCC(=O)NCCCC[C@@H]2NC(=O)[C@H](CCCCNC(=O)/C=N/O[C@@H]3O[C@@H](C)[C@@H](O)[C@@H](O)[C@@H]3O)NC(=O)CNC(=O)[C@@H]3CCCN3C(=O)[C@H](CCCCNC(=O)/C=N/O[C@@H]3O[C@@H](C)[C@@H](O)[C@@H](O)[C@@H]3O)NC(=O)[C@H](C)NC(=O)[C@H](CCCCNC(=O)/C=N/O[C@@H]3O[C@@H](C)[C@@H](O)[C@@H](O)[C@@H]3O)NC(=O)CNC(=O)[C@@H]3CCCN3C(=O)[C@H](CCCCNC(=O)/C=N/O[C@@H]3O[C@@H](C)[C@@H](O)[C@@H](O)[C@@H]3O)NC2=O)NC1=O [Compound 19],,0.06,10,76.72 ± 3.35,66.68,44 ± 5,9.8,,0.6,10,nanomolar affinity
